Reference: article PMC4718634, “Murine GPRC6A Mediates Cellular Responses to L-Amino Acids, but Not Osteocalcin Variants” (PLoS ONE, 2016)
Read-outs that look alike come from different tables or passages of the source.

How the values were obtained:
mGPRC6A (mouse GPRC6A) = target: T1, mGPRC6A (mouse GPRC6A) (Mus musculus, UniProt Q8K4Z6); experiment: Inositol phosphate (IP-One HTRF) accumulation, FlpIn-TREx-HEK293-mGPRC6A cells; format: cell-based; details: for EC50: 30 min, HTRF, HBSS pH 7.2, mean ± SEM of at least three independent experiments, read-out: pEC50, inositol phosphate accumulation (converted)
T1 sequence (Q8K4Z6 21-928): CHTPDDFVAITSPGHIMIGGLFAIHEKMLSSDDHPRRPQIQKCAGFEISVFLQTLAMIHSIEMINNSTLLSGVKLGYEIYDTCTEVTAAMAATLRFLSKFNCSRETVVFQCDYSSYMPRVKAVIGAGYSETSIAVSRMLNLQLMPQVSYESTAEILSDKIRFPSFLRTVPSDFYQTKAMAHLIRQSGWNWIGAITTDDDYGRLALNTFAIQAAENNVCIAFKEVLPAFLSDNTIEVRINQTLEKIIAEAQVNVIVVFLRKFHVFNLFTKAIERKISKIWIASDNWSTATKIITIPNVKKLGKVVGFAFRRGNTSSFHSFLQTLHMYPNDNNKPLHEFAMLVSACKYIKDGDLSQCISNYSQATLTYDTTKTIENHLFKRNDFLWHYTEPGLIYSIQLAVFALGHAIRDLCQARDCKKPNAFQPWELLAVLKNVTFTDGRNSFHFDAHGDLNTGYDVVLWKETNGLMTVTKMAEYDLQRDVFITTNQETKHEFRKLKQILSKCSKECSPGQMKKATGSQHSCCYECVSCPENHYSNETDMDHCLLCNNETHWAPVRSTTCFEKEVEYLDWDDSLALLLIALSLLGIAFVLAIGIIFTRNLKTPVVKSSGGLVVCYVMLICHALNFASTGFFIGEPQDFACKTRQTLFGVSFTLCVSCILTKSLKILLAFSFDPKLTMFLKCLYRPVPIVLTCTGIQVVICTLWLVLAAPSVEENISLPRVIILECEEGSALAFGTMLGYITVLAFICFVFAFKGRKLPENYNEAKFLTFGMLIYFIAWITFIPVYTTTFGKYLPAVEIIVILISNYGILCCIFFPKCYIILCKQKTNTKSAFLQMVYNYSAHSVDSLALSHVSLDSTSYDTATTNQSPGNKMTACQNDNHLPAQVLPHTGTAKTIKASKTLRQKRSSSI
Method: pcDNA 5/FRT/TO constructs were isogenically integrated into a FlpIn-TREx-HEK293 cell line (Life Technologies). FlpIn-TREx-HEK293-mGPRC6A and FlpIn-TREx-HEK293-hGPRC6A cells were then selected using 600 μg/ml hygromycin and 5 μg/ml blasticidin and grown in culture medium consisting of Dulbecco’s Modified Eagle Medium (DMEM), supplemented with 10% (v/v) foetal bovine serum (FBS) at 37°C in 5% CO2 and were sub-cultured in a 1:3 ratio every 3–4 days. Cells were cultured overnight in the presence of 1 μg/ml tetracycline to induce GPRC6A expression. […] 48 h after transfection, cells were selected using 3 μg/ml puromycin and grown as above.
Inositol phosphate (IPX) accumulation experiments were performed using the IP-One HTRF® assay kit (Cisbio, France). Briefly, 24h after transfection with G proteins (as above), 10^5 cells were seeded per well in PDL-coated, 96-well white plates and incubated overnight. Cells were then washed 2 x 2h at 37°C in HBSS buffer (pH 7.2) containing 20 mM HEPES, 3.5 mM NaHCO3, 1 mM CaCl2 and 0.1% (w/v) BSA. Test compounds were then prepared in the kit stimulation buffer containing 2 mM CaCl2; cells were then incubated with 70 μl of drugs for 30 min, after which 15 μl of both IP1-D2 and Ab-Cryp were added to the cells, followed by a 1 h incubation at RT. Plates were read using an Envision plate reader (Perkin Elmer), using an HTRF protocol. Results were calculated from the 665nm / 620nm HTRF ratio (Ratio = A665nm/A620nm x 10^4) and expressed as a percentage of the maximal response obtained.
Concentration-response data were analysed using a three or four parameter logistic function (Motulsky & Christopoulos, 2004) to generate estimates of agonist potency (LogEC50). Data for all HEK293 assays represent the mean ± SEM of at least three independent experiments (except cell impedance, n = 2). For GLP-1 release, the data represent mean ± SEM of three to five independent experiments (except for OCN, wash; n = 2). For insulin release assays, data represent the mean ± SEM of three independent experiments (except for islet studies; n = 2). Insulin release data were normalised to the response to vehicle in either low or high [glucose]. Statistical analysis for GLP-1 release data were performed by one-way ANOVA, followed by Sidak’s multiple comparisons test (treating wash / no wash datasets separately). Statistical analyses for insulin release data were performed by two-way ANOVA (with [glucose] and drug treatment as group variables), followed by Sidak’s multiple comparisons test. Where only high [glucose] groups were evaluated, statistical analysis was by one-way ANOVA followed by Sidak’s multiple comparisons test.

GPRC6A = tested on: GPRC6A; parameters: method as in PMID 15576628; details: chimera with goldfish 5.24 receptor and full length GPRC6A; ref [1]; cited from earlier work
MIN6 or βTC6 cells = experiment: Insulin release, MIN6 or βTC6 cells (summary table); format: cell-based, murine; details: S1 Table
Method: MIN6 or βTC-6 cells were seeded in 24-well plates at 170,000 cells per well in DMEM (containing 4.5g/L glucose, 10 mM HEPES, 100 U/ml penicillin, 100 μg/ml streptomycin and 15% de-complemented FBS) and incubated at 37°C / 5% CO2 for 72 h. Cells were then washed with 500 μl PBS and incubated in 500 μl deprivation media (DMEM with zero glucose, 10 mM HEPES, 1 mM Na-pyruvate, 100 U/ml penicillin, 100 μg/ml streptomycin, 15% de-complemented FBS) for 2 h at 37°C. Media was aspirated and after washing with 500 μl PBS, cells were treated with 250 μl of Krebs buffer (250 mM NaCl, 5.9 mM KCl, 1.2 mM MgCl2, 1.3 mM CaCl2, 25 mM HEPES, 0.1% BSA (w/v), and 2 mM or 16.7 mM glucose; pH 7.4) in the presence or absence of test compound. After incubation for 2 h at 37°C, the assay was terminated by placing the plates on ice and supernatants were transferred to a 96-well plate in preparation for insulin ELISA (Alpco) following manufacturer’s instructions. The cell monolayer was washed twice with 500 μl of PBS and then lysed using 250 μl of 1 N NaOH prior to protein measurement by the method of Bradford (1976).

Compound	EC50 (mGPRC6A (mouse GPRC6A); co-expression of GαqG66D) [µM]	EC50 (mGPRC6A (mouse GPRC6A); co-expression of wild-type Gαq) [µM]	potency of L-ornithine with GαqG66D compared to wild-type Gαq (mGPRC6A (mouse GPRC6A); inositol phosphate accumulation)	agonist response of GPRC6A (GPRC6A)	Insulin release (summary) (MIN6 or βTC6 cells)
NCCC[C@H](N)C(=O)O [L-ornithine]	100	1000	ten-fold higher potency	mediates responses to L-amino acids	–
OCN: osteoblast-derived peptide, osteocalcin; variant not specified at the place (YLYQWLGAPVPYPDPLEPRREVCELNPDCDELADHIGFQEAYRRFYGPV; UniProt P02818 52-100, looked up)	–	–	–	–	Insulin release – response to L-aa. No response to OCN
